Experimental data from PubChem BioAssay (NCI).
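Five compound concentrations were applied to cells in 96-well plates for 48 hours; endpoints were derived by simple linear interpolation of the resulting dose-response curve. GI50: concentration for 50% inhibition of growth. Definition used: TGI = concentration required for complete inhibition of growth.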

How the values were obtained:
Assay in all cases: DTP human tumour cell line panel, 48 h
SF-539 CNS = test system: SF-539 CNS
SNB-19 CNS = test system: SNB-19 CNS
ACHN renal = test system: ACHN renal
OVCAR-8 ovarian = test system: OVCAR-8 ovarian
HCC-2998 colon = test system: HCC-2998 colon
BT-549 breast = test system: BT-549 breast
NCI-H226 lung = test system: NCI-H226 lung
SNB-75 CNS = test system: SNB-75 CNS
SK-MEL-2 melanoma = test system: SK-MEL-2 melanoma
LOX IMVI melanoma = test system: LOX IMVI melanoma
MDA-MB-435 = test system: MDA-MB-435
NCI-H23 lung = test system: NCI-H23 lung
NCI-H460 lung = test system: NCI-H460 lung
SN12C renal = test system: SN12C renal
SK-MEL-28 melanoma = test system: SK-MEL-28 melanoma
TK-10 renal = test system: TK-10 renal
UACC-62 melanoma = test system: UACC-62 melanoma
786-0 renal = test system: 786-0 renal
MCF7 breast = test system: MCF7 breast
HCT-116 colon = test system: HCT-116 colon
IGROV1 ovarian = test system: IGROV1 ovarian
PC-3 prostate = test system: PC-3 prostate
MDA-MB-231 breast = test system: MDA-MB-231 breast
SW-620 colon = test system: SW-620 colon
HL-60(TB) leukemia = test system: HL-60(TB) leukemia
RPMI-8226 leukemia = test system: RPMI-8226 leukemia
KM12 colon = test system: KM12 colon
UO-31 renal = test system: UO-31 renal
HS 578T breast = test system: HS 578T breast
RXF 393 renal = test system: RXF 393 renal
DU-145 prostate = test system: DU-145 prostate
CCRF-CEM leukemia = test system: CCRF-CEM leukemia
NCI-H522 lung = test system: NCI-H522 lung
MALME-3M melanoma = test system: MALME-3M melanoma
SF-268 CNS = test system: SF-268 CNS
A549 NSCLC = test system: A549 NSCLC
NCI/ADR-RES ovarian = test system: NCI/ADR-RES ovarian
K-562 leukemia = test system: K-562 leukemia
HOP-62 NSCLC = test system: HOP-62 NSCLC
U251 CNS = test system: U251 CNS
SR leukemia = test system: SR leukemia
UACC-257 melanoma = test system: UACC-257 melanoma
OVCAR-5 ovarian = test system: OVCAR-5 ovarian
T-47D breast = test system: T-47D breast
M14 melanoma = test system: M14 melanoma
SK-MEL-5 melanoma = test system: SK-MEL-5 melanoma
HT29 colon = test system: HT29 colon
EKVX NSCLC = test system: EKVX NSCLC
CAKI-1 renal = test system: CAKI-1 renal
OVCAR-3 ovarian = test system: OVCAR-3 ovarian
SF-295 CNS = test system: SF-295 CNS
HCT-15 colon = test system: HCT-15 colon
HOP-92 NSCLC = test system: HOP-92 NSCLC
COLO 205 colon = test system: COLO 205 colon
SK-OV-3 ovarian = test system: SK-OV-3 ovarian
OVCAR-4 ovarian = test system: OVCAR-4 ovarian
A498 renal = test system: A498 renal

## CCCCCCCCCCCCCCCCCC1=NC(C)(C)CN1CC(C)O (centres undefined)
SF-539 CNS
  GI50: 4.03 µM
  TGI: 19.1 µM
SNB-19 CNS
  GI50: 7.08 µM
  TGI: 31.5 µM
ACHN renal
  GI50: 7.94 µM
  TGI: 21.9 µM
OVCAR-8 ovarian
  GI50: 3.99 µM
  TGI: 14.5 µM
HCC-2998 colon
  GI50: 6.01 µM
  TGI: 18.9 µM
BT-549 breast
  GI50: 19.7 µM
  TGI: 40.9 µM
NCI-H226 lung
  GI50: 18.8 µM
  TGI: 38.5 µM
SNB-75 CNS
  GI50: 9.11 µM
  TGI: 23.6 µM
SK-MEL-2 melanoma
  GI50: 15.6 µM
  TGI: 31 µM
LOX IMVI melanoma
  GI50: 1.81 µM
  TGI: 3.44 µM
MDA-MB-435
  GI50: 2.08 µM
  TGI: 4.5 µM
NCI-H23 lung
  GI50: 12.7 µM
  TGI: 27.1 µM
NCI-H460 lung
  GI50: 2.78 µM
  TGI: 7.06 µM
SN12C renal
  GI50: 10.5 µM
  TGI: 24.4 µM
SK-MEL-28 melanoma
  GI50: 17.1 µM
  TGI: 33.5 µM
TK-10 renal
  GI50: 20.9 µM
  TGI: 39 µM
UACC-62 melanoma
  GI50: 3.44 µM
  TGI: 12.5 µM
786-0 renal
  GI50: 14.9 µM
  TGI: 31.7 µM
MCF7 breast
  GI50: 3.09 µM
  TGI: 14.1 µM
HCT-116 colon
  GI50: 2.43 µM
  TGI: 5.86 µM
IGROV1 ovarian
  GI50: 10.1 µM
  TGI: 27.7 µM
PC-3 prostate
  GI50: 3.31 µM
  TGI: 10.8 µM
MDA-MB-231 breast
  GI50: 2.02 µM
  TGI: 4.37 µM
SW-620 colon
  GI50: 2.15 µM
  TGI: 4.78 µM
HL-60(TB) leukemia
  GI50: 4.82 µM
  TGI: 24.8 µM
RPMI-8226 leukemia
  GI50: 14.4 µM
  TGI: 36 µM
KM12 colon
  GI50: 6.18 µM
  TGI: 19.5 µM
UO-31 renal
  GI50: 13.8 µM
  TGI: 29.4 µM
HS 578T breast
  GI50: 14 µM
  TGI: 34.2 µM
RXF 393 renal
  GI50: 14.2 µM
  TGI: 31.9 µM
DU-145 prostate
  GI50: 3.66 µM
  TGI: 13.1 µM
CCRF-CEM leukemia
  GI50: 2.71 µM
  TGI: 7.39 µM
NCI-H522 lung
  GI50: 4.5 µM
  TGI: 23.8 µM
MALME-3M melanoma
  GI50: 17.1 µM
  TGI: 34.4 µM
SF-268 CNS
  GI50: 1.94 µM
  TGI: 4.06 µM
A549 NSCLC
  GI50: 3 µM
  TGI: 7.12 µM
NCI/ADR-RES ovarian
  GI50: 3.97 µM
  TGI: 23.6 µM
K-562 leukemia
  GI50: 2.45 µM
  TGI: 5.44 µM
HOP-62 NSCLC
  GI50: 5.69 µM
  TGI: 26 µM
U251 CNS
  GI50: 4.89 µM
  TGI: 19.9 µM
SR leukemia
  GI50: 2.75 µM
  TGI: > 100 µM
UACC-257 melanoma
  GI50: 22.4 µM
  TGI: 40.6 µM
OVCAR-5 ovarian
  GI50: 15.5 µM
  TGI: 31.7 µM
T-47D breast
  GI50: 6.58 µM
  TGI: 28 µM
M14 melanoma
  GI50: 2.29 µM
  TGI: 5.77 µM
SK-MEL-5 melanoma
  GI50: 17.4 µM
  TGI: 32 µM
HT29 colon
  GI50: 3.02 µM
  TGI: 7.42 µM
EKVX NSCLC
  GI50: 13.7 µM
  TGI: 30.1 µM
CAKI-1 renal
  GI50: 14.4 µM
  TGI: 29.4 µM
OVCAR-3 ovarian
  GI50: 5.35 µM
  TGI: 19.5 µM
SF-295 CNS
  GI50: 13 µM
  TGI: 31.4 µM
HCT-15 colon
  GI50: 1.88 µM
  TGI: 3.95 µM
HOP-92 NSCLC
  GI50: 3.94 µM
  TGI: 17.8 µM
COLO 205 colon
  GI50: 2.5 µM
  TGI: 6.61 µM
SK-OV-3 ovarian
  GI50: 18.8 µM
  TGI: 37 µM
OVCAR-4 ovarian
  GI50: 12.5 µM
  TGI: 28.4 µM
A498 renal
  GI50: 15.3 µM
  TGI: 32.2 µM
